The values that follow come from patent US20240262815A1, “HETEROARYL DERIVATIVE, METHOD FOR PREPARING SAME, AND PHARMACEUTICAL COMPOSITION COMPRISING SAME AS ACTIVE INGREDIENT” (VORONOI INC., priority 2021, published 2024).

A word on the GI50: it is the concentration at which growth is held to half of that of the control.

One assay relates to BT-474 cancer cells. As to the kind of experiment: Inhibitory activity against proliferation of BT-474 cancer cells (CellTiter-Glo). The format is cell-based. Particulars: Homo sapiens, BT-474 ErbB2-overexpressing cancer cells, 120 hours after treatment. The method in brief: (§1)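 Cells seeded 48 h before dosing (SK-BR-3 in McCOY'S 5A + 10% FBS; BT-474 in RPMI-1640 + 20% FBS), then exposed 120 h to 12 concentrations, 0.2 nM-5 μM final. Viability by CellTiter-Glo luminescence; GI50 from growth rate vs control, triplicate runs.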

For the next assay, the system named is SK-BR-3 cancer cells. Put plainly: Inhibitory activity against proliferation of SK-BR-3 cancer cells (CellTiter-Glo). It counts as cell-based. Particulars: Homo sapiens, SK-BR-3, 120 h, ErbB2-overexpressing SK-BR-3 cells, 120 hours after treatment. The procedure, abridged: as §1
In general terms: Cellular ATP, detected with luciferase, serves as a proxy for viable cell number.

On to `C=CC(=O)Nc1cc(Nc2cc(N3OCC[C@@H]3c3ccc(F)c(-c4cccc(F)c4)c3)ncn2)c(OC)cc1N1CCN(C)CC1` [Example 308, (R)-N-(5-((6-(3-(3′,6-difluoro-[1,1′-biphenyl]-3-yl)-isoxazolidin-2-yl)-pyrimidin-4-yl)-amino)-4-methoxy-2-(4-methylpiper-azin-1-yl)phenyl)-acrylamide], for which the GI50 with BT-474 cancer cells and with SK-BR-3 cancer cells was less than 50 nM each time.

Take `C=CC(=O)Nc1cc(Nc2cc(N3OCC[C@@H]3c3cccc(C#CC(C)(C)O)c3)ncn2)c(OC)cc1N(C)CCN(C)C` [Example 309, (R)-N-(2-((2-(dimethylamino)-ethyl)(methyl)-amino)-5-((6-(3-(3-(3-hydroxy-3-methylbut-1-yn-1-yl)phenyl)isoxazol-idin-2-yl)pyrim-idin-4-yl)amino)-4-methoxyphen-yl)acrylamide]: the GI50 in the assay with BT-474 cancer cells and with SK-BR-3 cancer cells was less than 50 nM in each case.

For `C=CC(=O)Nc1cc(Nc2cc(N3OCC[C@@H]3c3ccc(F)c(-c4cccc(F)c4)c3)ncn2)c(OC)cc1N(C)CCN(C)C` [Example 310, (R)-N-(5-((6-(3-(3′,6-difluoro-[1,1′-biphenyl]-3-yl)-isoxazolidin-2-yl)-pyrimidin-4-yl)-amino)-2-((2-(dimethylamino)-ethyl)(methyl)-amino)-4-methoxy-phenyl)acrylamide], the GI50 with BT-474 cancer cells and in the assay on SK-BR-3 cancer cells was less than 50 nM in each case.

Turning to `C=CC(=O)Nc1cc(Nc2cc(N3OCC[C@@H]3c3cccc(C#Cc4cccc(F)c4)c3)ncn2)c(OC)cc1N1CCN(C)CC1` [Example 314, (R)-N-(5-((6-(3-(3-((3-fluorophen-yl)ethynyl)phenyl)-isoxazolidin-2-yl)-pyrimidin-4-yl)-amino)-4-methoxy-2-(4-methylpiper-azin-1-yl)phenyl)-acrylamide], the GI50 in the assay on BT-474 cancer cells and with SK-BR-3 cancer cells was 50 to 500 nM each time.

Consider `C=CC(=O)Nc1cc(Nc2cc(N3OCC[C@@H]3c3cccc(C#Cc4cccc(O)c4)c3)ncn2)c(OC)cc1N1CCN(C)CC1` [Example 315, (R)-N-(5-((6-(3-(3-((3-hydroxy-phenyl)ethynyl)-phenyl)isoxazol-idin-2-yl)pyrim-idin-4-yl)amino)-4-methoxy-2-(4-methylpiperazin-1-yl)phenyl)acryl-amide], for which the concentration for 50% growth inhibition (GI50) lay in the range of 50 to 500 nM in the assay with BT-474 cancer cells and 500 to 5000 nM in the assay with SK-BR-3 cancer cells.

As for `C=CC(=O)Nc1cc(Nc2cc(N3OCC[C@@H]3c3cccc(-c4cccc(F)c4)c3)ncn2)c(OC)cc1N1CCC(N2CCC2)CC1` [Example 317, (R)-N-(2-(4-(azeti-din-1-yl)piperidin-1-yl)-5-((6-(3-(3′-fluoro-[1,1′-biphen-yl]-3-yl)isoxazol-idin-2-yl)pyrim-idin-4-yl)amino)-4-methoxyphen-yl)acrylamide], the GI50 in the assay on BT-474 cancer cells and with SK-BR-3 cancer cells was less than 50 nM in each case.

In the case of `C=CC(=O)Nc1cc(Nc2cc(N3OCC[C@@H]3c3cccc(-c4cccc(F)c4)c3)ncn2)c(OC)cc1N1CCN2CCCC2C1` (stereo partly drawn) [Example 318, N-(5-((6-((R)-3-(3′-fluoro-[1,1′-biphenyl]-3-yl)-isoxazolidin-2-yl)-pyrimidin-4-yl)-amino)-2-(hexa-hydropyrrolo[1,2-a]pyrazin-2(1H)-yl)-4-methoxy-phenyl)acrylamide], the GI50 with BT-474 cancer cells is less than 50 nM; with SK-BR-3 cancer cells it was 50 to 500 nM.

Take `C=CC(=O)Nc1cc(Nc2cc(N3OCC[C@@H]3c3cccc(-c4cccc(F)c4)c3)ncn2)c(OC)cc1N1CCN(C2CC2)[C@@H](C)C1` [Example 320, N-(2-((S)-4-cyclo-propyl-3-methyl-piperazin-1-yl)-5-((6-((R)-3-(3′-fluoro-[1,1′-biphen-yl]-3-yl)isoxazol-idin-2-yl)pyrim-idin-4-yl)amino)-4-methoxyphen-yl)acrylamide]: the GI50 with BT-474 cancer cells and in the assay on SK-BR-3 cancer cells was less than 50 nM each time.

As to `C=CC(=O)Nc1cc(Nc2cc(N3OCC[C@@H]3c3cccc(-c4cccc(F)c4)c3)ncn2)c(OC)cc1N1CC2(C1)CN(S(C)(=O)=O)C2` [Example 322, (R)-N-(5-((6-(3-(3′-fluoro-[1,1′-biphenyl]-3-yl)-isoxazolidin-2-yl)-pyrimidin-4-yl)-amino)-4-methoxy-2-(6-(methylsulfon-yl)-2,6-diazaspiro-[3.3]heptan-2-yl)-phenyl)acrylamide], the GI50 with BT-474 cancer cells and in the assay with SK-BR-3 cancer cells was less than 50 nM each time.

Consider `C=CC(=O)Nc1cc(Nc2cc(N3OCC[C@@H]3c3cccc(-c4cccc(F)c4)c3)ncn2)c(OC)cc1N1CC2(CN(C(=O)COC)C2)C1` [Example 323, (R)-N-(5-((6-(3-(3′-fluoro-[1,1′-biphenyl]-3-yl)-isoxazolidin-2-yl)-pyrimidin-4-yl)-amino)-4-methoxy-2-(6-(2-methoxy-acetyl)-2,6-diaza-spiro[3.3]heptan-2-yl)phenyl)acryl-amide], for which the concentration for 50% growth inhibition (GI50) with BT-474 cancer cells is less than 50 nM; with SK-BR-3 cancer cells, 50 to 500 nM.

Take `C=CC(=O)Nc1cc(Nc2cc(N3OCC[C@@H]3c3cccc(-c4cccc(F)c4)c3)ncn2)c(OC)cc1N1CCC(N2CCN(S(C)(=O)=O)CC2)CC1` [Example 324, (R)-N-(5-((6-(3-(3′-fluoro-[1,1′-biphenyl]-3-yl)-isoxazolidin-2-yl)-pyrimidin-4-yl)-amino)-4-methoxy-2-(4-(4-(methyl-sulfonyl)piperazin-1-yl)piperidin-1-yl)-phenyl)acrylamide]: the GI50 in the assay on BT-474 cancer cells and in the assay on SK-BR-3 cancer cells was less than 50 nM throughout.

For `C=CC(=O)Nc1cc(Nc2cc(N3OCCC3c3cccc(OCc4ccccn4)c3)ncn2)c(OC)cc1N(C)CCN(C)C` (stereo not drawn) [Example compound 95, N-(2-((2-(dimethylamino)ethyl)(methyl)amino)-4-methoxy-5-((6-(3-(3-(pyridin-2-ylmethoxy)phenyl)isoxazolidin-2-yl)pyrimidin-4-yl)amino)phenyl)acrylamide], the GI50 in the assay with BT-474 cancer cells and in the assay on SK-BR-3 cancer cells was less than 50 nM in each case.

On to `C=CC(=O)Nc1cc(Nc2cc(N3OCCC3c3cccc(OCc4ccccn4)c3)ncn2)c(OC)cc1N1CCN(C)CC1` (stereo not drawn) [Example compound 96, N-(4-methoxy-2-(4-methylpiperazin-1-yl)-5-((6-(3-(3-(pyridin-2-ylmethoxy)phenyl)isoxazolidin-2-yl)pyrimidin-4-yl)amino)phenyl)acrylamide], for which the GI50 in the assay on BT-474 cancer cells and with SK-BR-3 cancer cells was less than 50 nM throughout.

Take `C=CC(=O)Nc1cc(Nc2cc(N3OCCC3c3cccc(OCc4ccccn4)c3)ncn2)c(OC)cc1N1CCC(N2CCN(C3CC3)CC2)CC1` (stereo not drawn) [Example compound 98, N-(2-(4-(4-cyclopropylpiperazin-1-yl)piperidin-1-yl)-4-methoxy-5-((6-(3-(3-(pyridin-2-ylmethoxy)phenyl)isoxazolidin-2-yl)pyrimidin-4-yl)amino)phenyl)acrylamide]: the GI50 with BT-474 cancer cells and with SK-BR-3 cancer cells was less than 50 nM in each case.

`C=CC(=O)Nc1cc(Nc2cc(N3OCCC3c3ccc(Cl)c(OCc4cccc(F)c4)c3)ncn2)c(OC)cc1N1CCC(N2CCN(C3CC3)CC2)CC1` (stereo not drawn) [Example compound 116, N-(5-((6-(3-(4-chloro-3-((3-fluorobenzyl)oxy)phenyl)isoxazolidin-2-yl)pyrimidin-4-yl)amino)-2-(4-(4-cyclopropylpiperazin-1-yl)piperidin-1-yl)-4-methoxyphenyl)acrylamide]: the figures for the GI50 in the assay on BT-474 cancer cells and in the assay with SK-BR-3 cancer cells were 50 to 500 nM and less than 50 nM, respectively.

On to `C=CC(=O)Nc1cc(Nc2cc(N3OCC[C@@H]3c3cccc(-c4cccs4)c3)ncn2)c(OC)cc1N1CCC(N2CCN(C3CC3)CC2)CC1` [Example compound 135, (R)-N-(2-(4-(4-cyclopropylpiperazin-1-yl)piperidin-1-yl)-4-methoxy-5-((6-(3-(3-(thiophen-2-yl)phenyl)isoxazolidin-2-yl)pyrimidin-4-yl)amino)phenyl)acrylamide], for which the GI50 with BT-474 cancer cells and in the assay on SK-BR-3 cancer cells was less than 50 nM each time.

With `C=CC(=O)Nc1cc(Nc2cc(N3OCCC3c3ccc(F)c(OCc4cccc(F)c4)c3)ncn2)c(OC)cc1N1CCC(N2CCN(C3CC3)CC2)CC1` (stereo not drawn) [Example compound 150, N-(2-(4-(4-cyclopropylpiperazin-1-yl)piperidin-1-yl)-5-((6-(3-(4-fluoro-3-((3-fluorobenzyl)oxy)phenyl)isoxazolidin-2-yl)pyrimidin-4-yl)amino)-4-methoxyphenyl)acrylamide], the GI50 in the assay with BT-474 cancer cells and in the assay on SK-BR-3 cancer cells was less than 50 nM in each case.

Take `C=CC(=O)Nc1cc(Nc2cc(N3OCCC3c3ccc(F)c(OCc4cccc(F)c4)c3)ncn2)c(OC)cc1N1CCN(C)CC1` (stereo not drawn) [Example compound 151, N-(5-((6-(3-(4-fluoro-3-((3-fluorobenzyl)oxy)phenyl)isoxazolidin-2-yl)pyrimidin-4-yl)amino)-4-methoxy-2-(4-methylpiperazin-1-yl)phenyl)acrylamide]: the GI50 in the assay on BT-474 cancer cells and with SK-BR-3 cancer cells was less than 50 nM throughout.
